Measurements taken from BindingDB's records for doi:10.1021/jm000320t (Gsk, 2001).

Key:
Experiment in all cases: In Vitro Enzyme Inhibition Assay
[1] = target: Procathepsin L (Homo sapiens, UniProt P07711)
Description: (§1) Assays were carried out in the presence of variable concentrations of test compound. Reactions were initiated by addition of enzyme to buffered solutions of inhibitor and substrate. Product fluorescence (excitation at 360 nm, emission at 460 nm) was monitored with a fluorescent plate reader.

[2] = target: T1, Cathepsin K (Homo sapiens, UniProt P43235); conditions: pH 5.5; 22 °C
T1 sequence (P43235 whole entry): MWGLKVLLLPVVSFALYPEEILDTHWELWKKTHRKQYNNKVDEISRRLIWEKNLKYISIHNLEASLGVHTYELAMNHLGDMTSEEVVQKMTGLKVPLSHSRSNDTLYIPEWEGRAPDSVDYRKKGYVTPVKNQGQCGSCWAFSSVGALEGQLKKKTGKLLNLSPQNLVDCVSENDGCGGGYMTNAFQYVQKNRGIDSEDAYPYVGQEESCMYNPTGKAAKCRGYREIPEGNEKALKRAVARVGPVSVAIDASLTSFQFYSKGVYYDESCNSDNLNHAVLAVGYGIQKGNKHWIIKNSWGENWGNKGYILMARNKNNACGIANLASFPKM
Description: as §1

[3] = target: Cathepsin S (Homo sapiens, UniProt P25774)
Description: as §1

Chain of Cathepsin S (P25774 whole entry): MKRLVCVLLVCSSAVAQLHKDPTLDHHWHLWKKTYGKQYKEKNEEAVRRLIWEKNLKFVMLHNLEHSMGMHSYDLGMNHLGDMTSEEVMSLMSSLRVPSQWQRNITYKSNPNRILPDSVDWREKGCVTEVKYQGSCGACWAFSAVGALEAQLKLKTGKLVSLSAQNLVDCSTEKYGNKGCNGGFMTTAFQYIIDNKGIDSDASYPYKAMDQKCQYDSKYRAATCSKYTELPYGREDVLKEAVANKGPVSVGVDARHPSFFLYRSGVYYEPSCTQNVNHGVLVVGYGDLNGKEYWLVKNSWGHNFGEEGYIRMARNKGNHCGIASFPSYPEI
Chain of Procathepsin L (P07711 whole entry): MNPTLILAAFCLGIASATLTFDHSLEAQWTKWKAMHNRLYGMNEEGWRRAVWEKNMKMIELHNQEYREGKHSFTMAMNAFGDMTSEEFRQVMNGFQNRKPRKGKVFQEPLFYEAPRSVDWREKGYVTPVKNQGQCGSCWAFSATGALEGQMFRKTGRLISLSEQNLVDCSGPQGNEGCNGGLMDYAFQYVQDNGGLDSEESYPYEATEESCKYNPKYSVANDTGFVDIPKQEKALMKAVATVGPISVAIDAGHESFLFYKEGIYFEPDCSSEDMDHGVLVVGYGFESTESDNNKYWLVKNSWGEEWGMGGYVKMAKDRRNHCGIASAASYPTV

Ki [1]: 0.4 µM | Ki [2]: 0.077 µM | Ki [3]: 0.29 µM
SMILES: CN[C@@H](CC(C)C)C(=O)N1CC(=O)C(NC(=O)[C@H](CC(C)C)NC(=O)OCc2ccccc2)C1 (stereo partly drawn) [[(2S)-1-{3-[(2S)-2-{[(benzyloxy)carbonyl]amino}-4-methylpentanamido]-4-oxopyrrolidin-1-yl}-4-methyl-1-oxopentan-2-yl](methyl)azanium chloride]
